biological target: Dipeptidyl aminopeptidase 1 (Plasmodium falciparum); assay: DPAP1 inhibtion was measured using DPAP1-specific fluorogenic assay. IC50 DPAP1 were determined after 30 min incubation of parasite lysates with 5 nM to 100 mM inhibitor. ki values were obtained by fitting the data to Equation 1.

First: CCCCC(C(=O)COc1c(F)c(F)cc(F)c1F)n1cc(C(C)N)nn1 (configuration not stated) [ML4057]
Second: CCCCC(C(=O)COc1c(F)c(F)cc(F)c1F)n1cc(C(C)(C)N)nn1 (configuration not stated) [ML4066]
The IC50 of the first is 1.6-fold lower: 700 nM for the first, 1100 nM for the second.

First: CCCCC(C#N)n1cc(C2(N)CCCCC2)nn1 (configuration not stated) [ML4101]
Second: CCCCC(C(=O)COc1c(F)c(F)cc(F)c1F)n1cc(C2(N)CCCCC2)nn1 (configuration not stated) [HN3019]
The IC50 of the first is higher: greater than 100000 nM for the first, 560 nM for the second.

`CCCCC(C(=O)COc1c(F)c(F)cc(F)c1F)n1cc(C2(N)CCN(C(N)=O)CC2)nn1` (configuration not stated) [ML4154] and `CCCCC(C(=O)COc1c(F)c(F)cc(F)c1F)n1cc(C2(N)CCN(C(C)=O)CC2)nn1` (configuration not stated) [ML4163] cannot be ordered by IC50: greater than 20000 nM for the first, greater than 20000 nM for the second.

Going from `CCCCC(C(=O)COc1c(F)c(F)cc(F)c1F)n1cc(C2(N)CCNCC2)nn1` (configuration not stated) [ML4162] to `CCCCC(C(=O)COc1c(F)c(F)cc(F)c1F)n1cc(C2(C)CCCN2)nn1` (configuration not stated) [ML6076], the IC50 falls from greater than 20000 nM to 420 nM.

Going from `CCCCC(C(=O)COc1c(F)c(F)cc(F)c1F)n1cc([C@@](C)(N)C2CCCCC2)nn1` (some centres not stated) [ML4046A] to `CCCCC(C(=O)COc1c(F)c(F)cc(F)c1F)n1cc([C@](C)(N)C2CCCCC2)nn1` (some centres not stated) [ML4046B], the IC50 rises from 700 nM to greater than 20000 nM.

Compared with `CCCCC(C(=O)COc1c(F)c(F)cc(F)c1F)n1cc(C(N)(CC)CC)nn1` (configuration not stated) [ML4161], `CCCCC(C(=O)COc1c(F)c(F)cc(F)c1F)n1cc(C(N)(CCC)CCC)nn1` (configuration not stated) [ML4124] is 1.7-fold higher in IC50: 410 nM for the first, 700 nM for the second.

First: CCCCC(C(=O)COc1c(F)c(F)cc(F)c1F)n1cc(C(C)(N)CCC)nn1 (configuration not stated) [ML4123]
Second: CCCCC(C(=O)COc1c(F)c(F)cc(F)c1F)n1cc(C(CCC)(CCC)NC)nn1 (configuration not stated) [ML5004]
The IC50 of the first is 19-fold lower: 410 nM for the first, 7700 nM for the second. The first is the more potent here.

Compared with `CCCCC(C(=O)COc1c(F)c(F)cc(F)c1F)n1cc(C(N)Cc2ccccc2)nn1` (configuration not stated) [ML4068], `CCCCC(C(=O)COc1c(F)c(F)cc(F)c1F)n1cc(C(C)(N)Cc2ccccc2)nn1` (configuration not stated) [ML4053] is higher in IC50: 74000 nM for the first, greater than 100000 nM for the second. The first is the more potent here.

`CCCCC(C(=O)COC(=O)c1c(C)cccc1C)n1cc(C2(N)CCCCC2)nn1` (configuration not stated) [ML4091] showed an IC50 of 11000 nM.
